Source: patent US11020352B2, “Systems and methods for the fabrication of tablets, including pharmaceutical tablets” (Massachusetts Institute of Technology, priority 2017, dated 2021)

What was measured:
[1] = Bulk and flow properties of powders (FT4 Powder Rheometer); format: physicochemical; settings: API/excipient powder
[2] = Particle size of API and excipients; format: physicochemical; settings: API/excipient powder
Description: Microscopy images showing the morphology of IBU and DIZ particles are shown in FIGS. 29A and 29B, respectively. IBU and DIZ both are fine particles with a d50 of 21.87 μm and 23.12 μm, respectively.

| Molecule | Bulk density [1] [g/mL] | Compressibility [1] [%] | Flow function coefficient (ffc) [1] | Particle size d10 [2] [μm] | Particle size d50 [2] [μm] | Particle size d90 [2] [μm] |
| --- | --- | --- | --- | --- | --- | --- |
| OC[C@H]1O[C@@H](O[C@H]2[C@H](O)[C@@H](O)C(O)O[C@@H]2CO)[C@H](O)[C@@H](O)[C@H]1O (some centres unmarked) [Anhydrous lactose] | 0.74 | 13.10 | 5.69 | 26.03 | 188.75 | 425.90 |
| CN1C(=O)CN=C(c2ccccc2)c2cc(Cl)ccc21 [Diazepam (DIZ), Diazepam, reference compound] |  | 32.73 | 2.78 | 5.74 | 23.12 | 110.75 |
| CC(C)Cc1ccc(C(C)C(=O)O)cc1 (centres unmarked) [Ibuprofen (IBU), Ibuprofen, reference compound] | 0.53 | 25.07 | 3.87 | 4.86 | 21.87 | 75.31 |
| Magnesium stearate | 0.31 | 38.97 | 5.18 | 2.76 | 6.86 | 15.10 |
